The source of these data is ChEMBL document CHEMBL1135241 (Bioorg Med Chem Lett, 2002).

The term Ki denotes a measure of affinity in units of concentration, obtained from inhibition or displacement. The low end stands for higher affinity, the high end for lower affinity. Usually IC50 stands for the concentration needed to halve the response being measured. Read a high IC50 as lower potency.

The target in assay [1] is Delta-type opioid receptor (Rattus norvegicus, UniProt P33533). The assay is described as follows: Binding affinity against Opioid receptor delta 1 using [3H]DT in rat brain synaptosomes was determined. The format is subcellular.
Assay [2] has as its target Mu-type opioid receptor (Cavia porcellus, UniProt P97266). As to the kind of experiment: In vitro biological activity by electrically induced smooth muscle contractions in guinea pig ileum (Opioid receptor mu 1); inhibitory concentration was evaluated. The format is functional, tissue-based.
The target in assay [3] is Mu-type opioid receptor (Rattus norvegicus, UniProt P33535). As to the kind of experiment: Binding affinity against Opioid receptor mu 1 using [3H]DAMGO in rat brain synaptosomes was determined. The class given is subcellular.
The target of assay [4] is Delta-type opioid receptor (Mus musculus, UniProt P32300). The assay is described as follows: In vitro biological activity by electrically induced smooth muscle contractions in mouse vas deferens (Opioid receptor delta 1); inhibitory concentration was evaluated. The class given is functional.
Assay [5] can be described thus: Ratio of inhibitory concentration of guinea pig ileum to mouse vas deferens was determined. The format is functional.

Sequence of Mu-type opioid receptor (Rattus norvegicus, UniProt P33535) (P33535 whole entry): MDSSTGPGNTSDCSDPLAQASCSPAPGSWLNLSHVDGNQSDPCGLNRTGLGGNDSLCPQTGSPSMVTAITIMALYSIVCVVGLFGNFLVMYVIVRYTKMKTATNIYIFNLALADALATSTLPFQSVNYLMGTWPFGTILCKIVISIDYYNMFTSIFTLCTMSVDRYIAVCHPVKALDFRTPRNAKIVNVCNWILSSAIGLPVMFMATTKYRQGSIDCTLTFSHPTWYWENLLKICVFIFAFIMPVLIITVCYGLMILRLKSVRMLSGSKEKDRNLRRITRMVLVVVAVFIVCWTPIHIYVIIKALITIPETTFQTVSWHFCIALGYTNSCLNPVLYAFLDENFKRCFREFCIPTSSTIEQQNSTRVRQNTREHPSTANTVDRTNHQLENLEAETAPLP
Sequence of Mu-type opioid receptor (Cavia porcellus, UniProt P97266) (P97266 whole entry): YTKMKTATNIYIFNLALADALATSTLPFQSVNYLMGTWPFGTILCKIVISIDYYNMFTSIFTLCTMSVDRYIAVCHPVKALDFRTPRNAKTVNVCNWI
Sequence of Delta-type opioid receptor (Rattus norvegicus, UniProt P33533) (P33533 whole entry): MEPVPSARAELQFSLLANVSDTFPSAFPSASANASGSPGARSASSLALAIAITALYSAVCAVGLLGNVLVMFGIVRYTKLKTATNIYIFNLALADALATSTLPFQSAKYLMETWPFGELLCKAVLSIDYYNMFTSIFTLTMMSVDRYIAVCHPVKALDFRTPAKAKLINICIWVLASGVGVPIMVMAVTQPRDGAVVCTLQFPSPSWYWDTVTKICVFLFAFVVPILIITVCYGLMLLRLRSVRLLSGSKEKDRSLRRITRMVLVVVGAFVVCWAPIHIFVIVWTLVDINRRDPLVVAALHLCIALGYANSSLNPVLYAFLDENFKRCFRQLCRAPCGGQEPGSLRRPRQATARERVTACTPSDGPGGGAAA
Sequence of Delta-type opioid receptor (Mus musculus, UniProt P32300) (P32300 whole entry): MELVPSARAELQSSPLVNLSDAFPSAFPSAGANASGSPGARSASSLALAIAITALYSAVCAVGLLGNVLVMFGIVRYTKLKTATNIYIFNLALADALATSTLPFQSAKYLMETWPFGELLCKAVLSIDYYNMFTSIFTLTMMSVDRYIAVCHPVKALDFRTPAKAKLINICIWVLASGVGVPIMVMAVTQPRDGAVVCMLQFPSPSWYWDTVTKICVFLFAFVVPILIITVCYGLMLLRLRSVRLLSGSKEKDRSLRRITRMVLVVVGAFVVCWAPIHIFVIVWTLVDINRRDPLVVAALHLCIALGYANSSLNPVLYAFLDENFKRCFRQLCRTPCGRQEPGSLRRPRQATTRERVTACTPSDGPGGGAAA

Take `Cc1cccc(C)c1C[C@@H](NC(=O)[C@@H](C)NC(=O)[C@@H](N)Cc1ccc(O)cc1)C(=O)NCC(=O)N[C@@H](Cc1ccc(O)cc1)C(=O)N1CCC[C@H]1C(=O)N[C@@H](CO)C(N)=O`: the affinity in assay [1] corresponds to a Ki of 3300 nM. The molecule also had a half-inhibitory concentration (IC50) against Mu-type opioid receptor [2] of 44.4 nM.
For the molecule `Cc1cccc(C)c1C[C@@H](NC(=O)[C@@H](C)NC(=O)[C@@H](N)Cc1ccc(O)cc1)C(=O)N[C@@H](CCC(=O)O)C(=O)N[C@H](C(=O)N[C@H](C(=O)NCC(N)=O)C(C)C)C(C)C`, the inhibitory constant (Ki) at Mu-type opioid receptor [3] turned out to be 1960 nM; in assay [1], 111 nM. Further, the half-inhibitory concentration (IC50) in assay [4] amounted to 145 nM; at Mu-type opioid receptor [2], 8210 nM. The Ratio in assay [5] is recorded as 56.
For `Cc1cccc(C)c1C[C@H](NC(=O)[C@H](C)NC(=O)[C@@H](N)Cc1ccc(O)cc1)C(=O)N[C@@H](CCC(=O)O)C(=O)N[C@H](C(=O)N[C@H](C(=O)NCC(N)=O)C(C)C)C(C)C`, in that order: 1100 nM, 0.00105 nM, 0.022 nM, 6700 nM and 304772.
Regarding `Cc1cccc(C)c1C[C@H](NC(=O)[C@H](C)NC(=O)[C@@H](N)Cc1ccc(O)cc1)C(=O)NCC(=O)N[C@@H](Cc1ccc(O)cc1)C(=O)N1CCC[C@H]1C(=O)N[C@@H](CO)C(N)=O`, the affinity in assay [1], expressed as Ki, was 45.7 nM. Moreover, 1.21 nM corresponded to half-maximal inhibition against Mu-type opioid receptor [2] (IC50).
Take `CC(C)[C@H](NC(=O)[C@H](CC(=O)O)NC(=O)[C@H](Cc1ccccc1)NC(=O)[C@@H](C)NC(=O)[C@@H](N)Cc1ccc(O)cc1)C(=O)N[C@H](C(=O)NCC(N)=O)C(C)C` [DELTORPHIN C]: the inhibitory constant (Ki) came out at 314 nM on Mu-type opioid receptor [3] and 0.0026 nM in assay [1]. This molecule displayed a half-maximal inhibitory concentration (IC50) against Mu-type opioid receptor [2] of 5440 nM.
`C[C@@H](NC(=O)[C@@H](N)Cc1ccc(O)cc1)C(=O)N[C@@H](Cc1ccccc1)C(=O)NCC(=O)N[C@@H](Cc1ccc(O)cc1)C(=O)N1CCC[C@H]1C(=O)N[C@@H](CO)C(N)=O` [DERMORPHIN] showed an inhibition constant (Ki) at Mu-type opioid receptor [3] of 0.092 nM. The molecule also came in with a half-maximal inhibitory concentration (IC50) at Mu-type opioid receptor [2] of 3.74 nM.
